Values quoted from earlier work as cited in patent US7129355B2, “Process for preparing kifunensine intermediate and kifunensine therefrom” (Industrial Research Limited, priority 2002, dated 2006).

Test system: plant mannosidase II
Conditions: Elbein et al., J. Biol. Chem. 265, 15599, 1990

activity toward plant mannosidase II: inactive
Compound: O=C1N[C@@H]2[C@@H](O)[C@@H](O)[C@H](O)[C@@H](CO)N2C1=O [Kifunensine]
